Reference: patent US20220125745A1, “PHARMACEUTICAL COMPOSITION FOR CO-ADMINISTRATION OF ACIDOSIS-INDUCING DRUG” (HAIM BIO CO., LTD., priority 2018, published 2022)
Where two headings read alike, the source gives them in different places.

Assays:
[1] = system: A549 cells (cancer cells); test: Lactate assay (luminescence) in A549 cells, candidate substance alone or combined with a substance that causes lactic acidosis; type: cell-based; settings: for activity at 50 µM: Homo sapiens
Experimental: (§1) To identify the effects of administration of the candidate substances for lactic acidosis treatment as described in Example 1 in combination with the above-mentioned substances that cause lactic acidosis, A549 cells (cancer cells) or L132 cells (normal cells) were respectively seeded in 96- or 24-well plates at a concentration of 1×10^4 or 3×10^5 cells/well, and incubation was performed overnight. Administration of the candidate substance for acidosis treatment in combination with the substance that causes lactic acidosis was performed and incubation was further performed for 24 hours. For the candidate substances for acidosis treatment, each substance was administered at a uniform concentration of 50 μM; and for the substances that cause lactic acidosis, metformin was administered at 1 to 100 μM, isoniazid was administered at 1 to 500 μM, berberine was administered at 10 μM, linezolid was administered at 200 μM, and phenformin was administered at 100 μM. All substances were dissolved in dimethyl sulfoxide (DMSO, Sigma-Aldrich Corporation, St. Louis, Mo., USA), and the substances to be administered in combination were administered simultaneously. Subsequently, 50 μl of the cell culture solution obtained by being diluted with Dulbecco's Phosphate-Buffered Saline (DPBS; Wellgene, Korea), and 50 μl of the lactate assay reaction buffer (Promega, Madison, Wis., USA) were mixed and the mixture was added in a 96-well plate. Reaction was allowed to proceed at room temperature for 1 hour. Then, luminescence was measured with a spectrophotometer (Synergy HTX Multi-Reader; BioTek, Winooski, Vt., USA). At the same time, the number of cells in each sample was measured with a cell viability analysis kit (Cell Counting Kit-8; Dojindo Molecular Technologies, Inc., Kumamoto, Japan), and calculation was performed so that the lactic acid measurement value in each sample could be compared with that in the negative control for the same number of cells.

[2] = system: L132 cells (normal cells); test: Lactate assay (luminescence) in L132 cells, candidate substance alone or combined with a substance that causes lactic acidosis; type: cell-based; settings: for activity at 50 µM: Homo sapiens
Experimental: as §1

[3] = A549, candidate 50 μM + berberine 10 μM, relative to berberine alone (PC)
[4] = A549, candidate 50 μM + linezolid 200 μM, relative to linezolid alone (PC)
[5] = A549, candidate 50 μM + phenformin 100 μM, relative to phenformin alone (PC)
[6] = A549, candidate 50 μM alone, no berberine, 24 h, vs negative control, mean ± SEM, read-out: Luminescence intensity (%), Berberine (10 μM) −
[7] = A549, candidate 50 μM alone, no linezolid, 24 h, vs negative control, mean ± SEM, read-out: Luminescence intensity (%), Linezolid (200 μM) −
[8] = A549, candidate 50 μM alone, no phenformin, 24 h, vs negative control, mean ± SEM, read-out: Luminescence intensity (%), Phenformin (100 μM) −
[9] = L132, candidate 50 μM alone, no berberine, 24 h, vs negative control, mean ± SEM, read-out: Luminescence intensity (%), Berberine (10 μM) −
[10] = L132, candidate 50 μM alone, no linezolid, 24 h, vs negative control, mean ± SEM, read-out: Luminescence intensity (%), Linezolid (200 μM) −
[11] = L132, candidate 50 μM alone, no phenformin, 24 h, vs negative control, mean ± SEM, read-out: Luminescence intensity (%), Phenformin (100 μM) −
[12] = L132, candidate 50 μM + berberine 10 μM, relative to berberine alone (PC)
[13] = L132, candidate 50 μM + linezolid 200 μM, relative to linezolid alone (PC)
[14] = L132, candidate 50 μM + phenformin 100 μM, relative to phenformin alone (PC)
[15] = A549, 24 h, read-out: Luminescence intensity (%), Berberine (10 μM) −
[16] = A549, 24 h, read-out: Luminescence intensity (%), Linezolid (200 μM) −
[17] = A549, 24 h, read-out: Luminescence intensity (%), Phenformin (100 μM) −
[18] = L132, 24 h, read-out: Luminescence intensity (%), Berberine (10 μM) −
[19] = L132, 24 h, read-out: Luminescence intensity (%), Linezolid (200 μM) −
[20] = L132, 24 h, read-out: Luminescence intensity (%), Phenformin (100 μM) −

Structure (SMILES) | Lactic acid value vs. PC (%) [1, 3] [%] | Lactic acid-decreasing rate vs. PC (%) [1, 3] [%] | Lactic acid value vs. PC (%) [1, 4] [%] | Lactic acid-decreasing rate vs. PC (%) [1, 4] [%] | Lactic acid value vs. PC (%) [1, 5] [%] | Lactic acid-decreasing rate vs. PC (%) [1, 5] [%] | activity at 50 µM [1, 6] [%] | activity at 50 µM [1, 7] [%] | activity at 50 µM [1, 8] [%] | activity at 50 µM [2, 9] [%] | activity at 50 µM [2, 10] [%] | activity at 50 µM [2, 11] [%] | Lactic acid value vs. PC (%) [2, 12] [%] | Lactic acid-decreasing rate vs. PC (%) [2, 12] [%] | Lactic acid value vs. PC (%) [2, 13] [%] | Lactic acid-decreasing rate vs. PC (%) [2, 13] [%] | Lactic acid value vs. PC (%) [2, 14] [%] | Lactic acid-decreasing rate vs. PC (%) [2, 14] [%] | other results
CCCCNC(=O)n1c(NC(=O)OC)nc2ccccc21 [Benomyl] | 88.55 | 11.45 | 84.32 | 15.68 | 92.74 | 7.26 | 87.7 ± 1.21 | 87.7 ± 1.21 | 87.7 ± 1.21 | 85.4 ± 1.55 | 85.4 ± 1.55 | 85.4 ± 1.55 | 85.38 | 14.62 | 84.83 | 15.17 | 93.03 | 6.97 | –
C#CCN(C)Cc1ccccc1 [Pargyline] | 101.89 | −1.89 | 98.24 | 1.76 | 95.59 | 4.41 | 95.68 ± 0.7 | 95.68 ± 0.7 | 95.68 ± 0.7 | 96.1 ± 1.32 | 96.1 ± 1.32 | 96.1 ± 1.32 | 101.56 | −1.56 | 88.70 | 11.30 | 100.88 | −0.88 | –
CC(C)=CCCC(C)=CC=O [Citral] | 95.67 | 4.33 | 103.20 | −3.20 | 93.80 | 6.20 | 100.5 ± 0.81 | 100.5 ± 0.81 | 100.5 ± 0.81 | 102.4 ± 0.98 | 102.4 ± 0.98 | 102.4 ± 0.98 | 102.03 | −2.03 | 102.02 | −2.02 | 99.57 | 0.43 | –
N.N.[Cl][Pt][Cl] [CDDP, Cis-diamminedichloridoplatinum] | 74.20 | 25.80 | 78.37 | 21.63 | 80.03 | 19.97 | – | – | – | – | – | – | 71.42 | 28.58 | 68.28 | 31.72 | 83.98 | 16.02 | Luminescence intensity (%), Berberine (10 μM) − ([1]; A549, candidate 50 μM alone, no berberine, 24 h, vs negative control, mean ± SEM): 75.98 ± 2.34 %; Luminescence intensity (%), Linezolid (200 μM) − ([1]; A549, candidate 50 μM alone, no linezolid, 24 h, vs negative control, mean ± SEM): 75.98 ± 2.34 %; Luminescence intensity (%), Phenformin (100 μM) − ([1]; A549, candidate 50 μM alone, no phenformin, 24 h, vs negative control, mean ± SEM): 75.98 ± 2.34 %; Luminescence intensity (%), Berberine (10 μM) − ([2]; L132, candidate 50 μM alone, no berberine, 24 h, vs negative control, mean ± SEM): 76.97 ± 2.13 %; Luminescence intensity (%), Linezolid (200 μM) − ([2]; L132, candidate 50 μM alone, no linezolid, 24 h, vs negative control, mean ± SEM): 76.97 ± 2.13 %; Luminescence intensity (%), Phenformin (100 μM) − ([2]; L132, candidate 50 μM alone, no phenformin, 24 h, vs negative control, mean ± SEM): 76.97 ± 2.13 %
O=c1c(-c2ccc(O)cc2)coc2cc(O[C@@H]3O[C@H](CO)[C@@H](O)[C@H](O)[C@H]3O)ccc12 [Daidzin] | 92.49 | 7.51 | 82.45 | 17.55 | 99.76 | 0.24 | – | – | – | – | – | – | 95.94 | 4.06 | 87.80 | 12.20 | 98.19 | 1.81 | activity at 50 µM [1, 15]: 97.4 ± 1.1%; activity at 50 µM [1, 16]: 97.4 ± 1.1%; activity at 50 µM [1, 17]: 97.4 ± 1.1%; activity at 50 µM [2, 18]: 92 ± 1.14%; activity at 50 µM [2, 19]: 92 ± 1.14%; activity at 50 µM [2, 20]: 92 ± 1.14%
CS(=O)(=O)Nc1ccc(-c2coc3cc(OCc4cccc(C(=O)O)c4)ccc3c2=O)cc1 [CVT-10216, 3-[[[3-[4-[(methylsulfonyl)amino]phenyl]-4-oxo-4H-chromen-7-yl]oxy]methyl]benzoic acid] | 95.79 | 4.21 | 92.93 | 7.07 | 92.13 | 7.87 | 96.5 ± 1.04 | 96.5 ± 1.04 | 96.5 ± 1.04 | 97.7 ± 1.1 | 97.7 ± 1.1 | 97.7 ± 1.1 | 103.15 | −3.15 | 100.28 | −0.28 | 99.21 | 0.79 | –
O=CC(=O)c1ccccc1 [Phenylglyoxal] | 90.18 | 9.82 | 82.74 | 17.26 | 89.61 | 10.39 | 97.3 ± 1.03 | 97.3 ± 1.03 | 97.3 ± 1.03 | 93.7 ± 1.34 | 93.7 ± 1.34 | 93.7 ± 1.34 | 90.06 | 9.94 | 88.89 | 11.11 | 96.12 | 3.88 | –
Cc1cc2c(C(C)C)c(O)c(O)c(C=O)c2c(O)c1-c1c(C)cc2c(C(C)C)c(O)c(O)c(C=O)c2c1O [Gossypol] | 62.63 | 37.37 | 67.86 | 32.14 | 67.24 | 32.76 | – | – | – | – | – | – | 50.96 | 49.04 | 67.84 | 32.16 | 51.58 | 48.42 | activity at 50 µM [1, 15]: 87.6 ± 1.87%; activity at 50 µM [1, 16]: 87.6 ± 1.87%; activity at 50 µM [1, 17]: 87.6 ± 1.87%; activity at 50 µM [2, 18]: 84.3 ± 2.9%; activity at 50 µM [2, 19]: 84.3 ± 2.9%; activity at 50 µM [2, 20]: 84.3 ± 2.9%
CCSC(=O)N1CCCCCC1 [Molinate] | 105.78 | −5.78 | 105.88 | −5.88 | 91.13 | 8.87 | 110 ± 1.91 | 110 ± 1.91 | 110 ± 1.91 | 155 ± 3.38 | 155 ± 3.3 | 155 ± 3.38 | 105.04 | −5.04 | 125.68 | −25.68 | 99.16 | 0.84 | –
